Assay results as given in patent publication US12065445B2, “CDK2 inhibitors and methods of using the same” (Cedilla Therapeutics, Inc., priority 2021, dated 2024).
pIC50: −log10 of the molar value.

System: Kuramochi cells
Test: BrdU Cell Proliferation Assay
Type: cell-based
Details: read-out: BrdU - KURAMOCHI.1: IC50
In short: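 Kuramochi cells were seeded at 2,000 cells/well, adhered overnight, then treated with a 10-point, 3-fold compound dilution series for 4 days. Proliferation was measured by a 1-hour BrdU pulse, anti-BrdU peroxidase colorimetric ELISA and 450 nm absorbance. Values were background-subtracted and normalized to DMSO wells.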

CNC(=O)[C@@H](NC(=O)[C@H]1CN(Cc2ccncc2)CC12CN(C(=O)[C@H]1CC1(C)C)C2)[C@@H](C)OCc1ccccc1 [I-55B]
pIC50: < 5.00

CNC(=O)[C@@H](NC(=O)[C@H]1CN(C(=O)c2cnn(Cc3ccccc3)c2)CC12CN(C(=O)[C@H]1CC1(C)C)C2)[C@@H](C)OCC(C)(C)C [I-130B]
pIC50: < 5.00

CNC(=O)[C@@H](NC(=O)[C@H]1CN(C(=O)c2scnc2C2CC2)CC12CN(C(=O)[C@H]1CC1(C)C)C2)[C@@H](C)OCC1CCCCC1 [I-185B]
pIC50: < 5.00

CO[C@H](C)[C@H](NC(=O)[C@@H]1CN(C(=O)c2cnn(C)c2)CC12CN(C(=O)[C@H]1CC1(C)C)C2)C(=O)N1CCCCC1 [I-303]
pIC50: < 5.00

CNC(=O)[C@@H](NC(=O)[C@H]1CN(C(=O)c2cnn(Cc3ccccc3)c2)CC12CN(C(=O)C1CC1(C)C)C2)[C@@H](C)O (some centres unmarked) [I-88B]
pIC50: < 5.00

CNC(=O)[C@@H](NC(=O)[C@H]1CN(C(=O)c2cnn(Cc3ccccc3)c2)CC12CN(C(=O)CC(C)C)C2)[C@@H](C)OCc1ccccc1 [I-69B]
pIC50: < 5.00

CCC(CC)C(=O)N1CC2(CN(C(=O)c3cnn(Cc4ccccc4)c3)C[C@@H]2C(=O)N[C@H](C(=O)NC)[C@@H](C)OCc2ccccc2)C1 [I-74B]
pIC50: < 5.00

CNC(=O)[C@@H](NC(=O)[C@@H]1CN(C(=O)c2cnn(Cc3ccccc3)c2)CC12CN(C(=O)[C@H]1CC1(C)C)C2)[C@@H](C)OCC(F)(F)F [I-204]
pIC50: < 5.00

CNC(=O)[C@@H](NC(=O)[C@H]1CN(C(=O)c2cnc(C(F)(F)F)s2)CC12CN(C(=O)[C@H]1CC1(C)C)C2)[C@@H](C)OCC1CCCCC1 [I-161B]
pIC50: < 5.00

CN(C(=O)[C@@H]1CCCN(C(=O)[C@@H]2CN(C(=O)c3cnn(Cc4ccccc4)c3)CC23CN(C(=O)[C@H]2CC2(C)C)C3)C1)C1CCCCC1 [I-181]
pIC50: < 5.00

CC1(C)C[C@@H]1C(=O)N1CC2(CN(C(=O)c3cnn(Cc4ccccc4)c3)CC2C(=O)NC2CNCCOC2)C1 (some centres unmarked) [I-245]
pIC50: < 5.00

C[C@@H](OCc1ccccc1)[C@H](NC(=O)C1CN(C(=O)c2cnn(Cc3ccccc3)c2)CC12CN(C(=O)[C@H]1CC1(C)C)C2)C(=O)NCC#CCN (some centres unmarked) [I-28]
pIC50: < 5.00

CNC(=O)[C@@H](NC(=O)[C@@H]1CN(Cc2cnn(Cc3ccccc3)c2)CC12CN(C(=O)[C@H]1CC1(C)C)C2)[C@@H](C)OCc1ccccc1 [I-16A]
pIC50: < 5.00

C[C@@H](OCc1ccccc1)[C@H](NC(=O)C1CN(C(=O)c2cnn(Cc3ccccc3)c2)CC12CN(C(=O)[C@H]1CC1(C)C)C2)C(=O)NCC#CCO (some centres unmarked) [I-20]
pIC50: < 5.00

CNC(=O)[C@@H](NC(=O)[C@H]1CN(C(=O)c2cnn(Cc3ccccc3)c2)CC12CN(C(=O)[C@H]1CC1(C)C)C2)[C@@H](C)OCC1CCOCC1 [I-119B]
pIC50: < 5.00

CC1(C)C[C@@H]1C(=O)N1CC2(CN(C(=O)c3cnn(Cc4ccccc4)c3)C[C@H]2C(=O)N2CCC[C@@H](OCC3CCCCC3)C2)C1 [I-254]
pIC50: < 5.00

Cc1n[nH]c(C(=O)N2C[C@@H](C(=O)N[C@H](C(=O)N3CCCCC3)[C@@H](C)OCC3CCCCC3)C3(C2)CN(C(=O)[C@H]2CC2(C)C)C3)n1 [I-241]
pIC50: < 5.00

CNC(=O)[C@@H](NC(=O)[C@H]1CN(C(=O)c2ccccn2)CC12CN(C(=O)[C@H]1CC1(C)C)C2)[C@@H](C)OCc1ccccc1 [I-45B]
pIC50: < 5.00

CNC(=O)[C@H](CCCC1CCCCC1)NC(=O)[C@H]1CN(C(=O)c2cnn(Cc3ccccc3)c2)CC12CN(C(=O)[C@H]1CC1(C)C)C2 [I-155B]
pIC50: < 5.00

C[C@@H](OCC1CCCCC1)[C@H](NC(=O)[C@@H]1CN(C(=O)c2cnn(Cc3ccccc3)c2)CC12CN(C(=O)[C@H]1CC1(C)C)C2)C(N)=O [I-200]
pIC50: 5.30 to 6.30

C[C@@H](OCc1ccccc1)[C@H](NC(=O)C1CN(C(=O)c2cnn(Cc3ccccc3)c2)CC12CN(C(=O)[C@H]1CC1(C)C)C2)C(=O)N1CCOCC1 (some centres unmarked) [I-86]
pIC50: < 5.00

C[C@@H](OCC1CCCCC1)[C@H](NC(=O)[C@H]1CN(C(=O)c2cnn(Cc3ccccc3)c2)CC12CN(C(=O)[C@H]1CC1(C)C)C2)C(=O)N1CCC(F)(F)CC1 [I-149B]
pIC50: < 5.00

CNC(=O)[C@@H](NC(=O)[C@H]1CN(C(=O)c2cn[nH]c2)CC12CN(C(=O)[C@H]1CC1(C)C)C2)[C@@H](C)OCC1CCCCC1 [I-66B]
pIC50: < 5.00

CNC(=O)[C@@H](NC(=O)[C@@H]1CN(C(=O)c2cnn(Cc3ccccc3)c2)CC12CN(C(=O)CC1CC1)C2)[C@@H](C)OCC1CCCCC1 [I-56A]
pIC50: < 5.00

CNC(=O)[C@@H](NC(=O)[C@@H]1CN(C(=O)c2cn[nH]c2)CC12CN(C(=O)CC1CC1)C2)[C@@H](C)OCc1ccccc1 [I-41A, (S)—N-((2S,3R)-3-(benzyloxy)-1-(methylamino)-1-oxobutan-2-yl)-2-(2-cyclopropylacetyl)-6-(1H-pyrazole-4-carbonyl)-2,6-diazaspiro[3.4]octane-8-carboxamide]
pIC50: < 5.00

CNC(=O)[C@@H](NC(=O)[C@H]1CN(C(=O)c2cnc(C(C)(C)C)s2)CC12CN(C(=O)[C@H]1CC1(C)C)C2)[C@@H](C)OCC1CCCCC1 [I-229B]
pIC50: < 5.00

CNC(=O)[C@@H](NC(=O)[C@@H]1CN(C(=O)c2cnn(CC3CC3)c2)CC12CN(C(=O)CC1CC1)C2)[C@@H](C)OCc1ccccc1 [I-53A]
pIC50: < 5.00

C[C@@H](OCC1CCC(F)(F)CC1)[C@H](NC(=O)[C@H]1CN(C(=O)c2cn[nH]c2)CC12CN(C(=O)[C@H]1CC1(C)C)C2)C(=O)N1CCC(F)(F)CC1 [I-228B]
pIC50: < 5.00

CNC(=O)[C@H](CCCC1CCCCC1)NC(=O)[C@@H]1CN(C(=O)c2cnn(Cc3ccccc3)c2)CC12CN(C(=O)[C@H]1CC1(C)C)C2 [I-155A]
pIC50: < 5.00

C[C@@H](OCC1CCCCC1)[C@H](NC(=O)[C@H]1CN(C(=O)c2cnn(Cc3ccccc3)c2)CC12CN(C(=O)[C@H]1CC1(C)C)C2)C(=O)N1CC(C)(C)C1 [I-153B]
pIC50: < 5.00

CC1(C)C[C@@H]1C(=O)N1CC2(CN(C(=O)c3cnn(Cc4ccccc4)c3)C[C@H]2C(=O)NCc2nc3ccccc3o2)C1 [I-230]
pIC50: < 5.00

CC1(C)C[C@@H]1C(=O)N1CC2(CN(C(=O)c3cnn(Cc4ccccc4)c3)C[C@@H]2C(=O)Nc2cccc(Cc3ccccc3)c2)C1 [I-75B]
pIC50: < 5.00

C[C@@H](OCc1ccccc1)[C@H](NC(=O)C1CN(C(=O)c2cnn(Cc3ccccc3)c2)CC12CN(C(=O)[C@H]1CC1(C)C)C2)C(=O)NCCN (some centres unmarked) [I-31]
pIC50: < 5.00

CNC(=O)[C@@H](NC(=O)C1CN(Cc2n[nH]c3ccccc23)CC12CN(C(=O)[C@H]1CC1(C)C)C2)[C@@H](C)OCc1ccccc1 (some centres unmarked) [I-159]
pIC50: < 5.00

CNC(=O)[C@@H](NC(=O)[C@@H]1CN(C(=O)c2ccncc2)CC12CN(C(=O)[C@H]1CC1(C)C)C2)[C@@H](C)OCc1ccccc1 [I-46A]
pIC50: < 5.00

CC1(C)C[C@@H]1C(=O)N1CC2(CN(C(=O)c3cnn(Cc4ccccc4)c3)C[C@H]2C(=O)N[C@@H]2CC[C@@H]2O)C1 [I-201B]
pIC50: < 5.00

CNC(=O)[C@@H](NC(=O)[C@H]1CN(C(=O)c2nccs2)CC12CN(C(=O)[C@H]1CC1(C)C)C2)[C@@H](C)OCC1CCCCC1 [I-146]
pIC50: < 5.00

CNC(=O)[C@@H](NC(=O)[C@@H]1CN(C(=O)c2cnn(Cc3ccccc3)c2)CC12CN(C(=O)C1(CCOC)CC1)C2)[C@@H](C)OCc1ccccc1 [I-102A]
pIC50: < 5.00

CO[C@@H]1CC[C@H](NC(=O)[C@@H]2CN(C(=O)c3cnn(Cc4ccccc4)c3)CC23CN(C(=O)[C@H]2CC2(C)C)C3)C1 [I-248]
pIC50: < 5.00

CNC(=O)[C@@H](NC(=O)[C@@H]1CN(Cc2ccncc2)CC12CN(C(=O)[C@H]1CC1(C)C)C2)[C@@H](C)OCc1ccccc1 [I-55A]
pIC50: < 5.00

CC1(C)C[C@@H]1C(=O)N1CC2(CN(C(=O)c3cnn(Cc4ccccc4)c3)C[C@H]2C(=O)Nc2ccc(Cc3ccccc3)nc2)C1 [I-139, (S)-6-(1-benzyl-1H-pyrazole-4-carbonyl)-N-(6-benzylpyridin-3-yl)-2-((S)-2,2-dimethylcyclopropane-1-carbonyl)-2,6-diazaspiro[3.4]octane-8-carboxamide]
pIC50: < 5.00

CC1(C)C[C@@H]1C(=O)N1CC2(CN(C(=O)c3cnn(Cc4ccccc4)c3)C[C@H]2C(=O)N[C@H]2CCCN(CC3CCCCC3)C2)C1 [I-183]
pIC50: < 5.00

CNC(=O)[C@@H](NC(=O)[C@@H]1CN(C(=O)c2cnn(Cc3ccccc3)c2)CC12CN(C(=O)[C@H]1CC1(C)C)C2)[C@@H](C)OCc1ccncc1 [I-244]
pIC50: < 5.00

CNC(=O)[C@@H](NC(=O)[C@H]1CN(C(=O)c2cncs2)CC12CN(C(=O)[C@H]1CC1(C)C)C2)[C@@H](C)OCC1CCCCC1 [I-129B]
pIC50: < 5.00

CNC(=O)[C@@H](NC(=O)[C@@H]1CN(C(=O)c2cnn(Cc3ccccc3)c2)CC12CN(C(=O)C1(C#N)CC1)C2)[C@@H](C)OCc1ccccc1 [I-73A]
pIC50: < 5.00

COC(=O)C1(NC(=O)[C@@H]2CN(C(=O)c3cnn(Cc4ccccc4)c3)CC23CN(C(=O)[C@H]2CC2(C)C)C3)COC1 [I-142B]
pIC50: < 5.00

CNC(=O)[C@H](CCCc1ccccc1)NC(=O)[C@H]1CN(C(=O)c2cnn(Cc3ccccc3)c2)CC12CN(C(=O)[C@H]1CC1(C)C)C2 [I-101B]
pIC50: < 5.00

C[C@@H](OCC1CCC(F)(F)CC1)[C@H](NC(=O)[C@H]1CN(C(=O)c2cn[nH]c2)CC12CN(C(=O)C1(C(F)(F)F)CC1)C2)C(=O)N1CCC(F)(F)CC1 [I-188B]
pIC50: < 5.00

CNC(=O)[C@@H](NC(=O)[C@H]1CN(C(=O)c2cnn(Cc3ccccc3)c2)CC12CN(C(=O)C(C)C)C2)[C@@H](C)OCc1ccccc1 [I-54B]
pIC50: < 5.00

CC1(C)C[C@@H]1C(=O)N1CC2(CN(C(=O)c3cnn(Cc4ccccc4)c3)C[C@@H]2C(=O)NC2CCN(C(=O)c3ccccc3)CC2)C1 [I-61B]
pIC50: < 5.00

CNC(=O)[C@@H](NC(=O)[C@H]1CN(C(=O)c2cnn(Cc3ccc(F)cc3)c2)CC12CN(C(=O)[C@H]1CC1(C)C)C2)[C@@H](C)OCc1ccc(F)cc1 [I-136B]
pIC50: < 5.00

CNC(=O)[C@@H](NC(=O)[C@H]1CN(C(=O)c2scnc2C(F)(F)F)CC12CN(C(=O)[C@H]1CC1(C)C)C2)[C@@H](C)OCC1CCCCC1 [I-163B]
pIC50: < 5.00

CNC(=O)[C@@H](NC(=O)[C@@H]1CN(C(=O)c2scnc2C2CCCC2)CC12CN(C(=O)[C@H]1CC1(C)C)C2)[C@@H](C)OCC1CCCCC1 [I-224B]
pIC50: < 5.00
